Results on seven molecules are retold here after PubChem BioAssay (NCI).

Some test systems named below: HOP-92 NSCLC; NCI-H460 lung; OVCAR-5 ovarian; COLO 205 colon; NCI/ADR-RES ovarian; HCT-15 colon; MDA-MB-231 breast; SF-539 CNS; HL-60(TB) leukemia; OVCAR-8 ovarian.
Common to all, as to test: NCI anticancer screen, dose series, 48 h

Each structure is given as a SMILES string. Several values for one entry are separate records, joined by “and”; a condition that tells them apart may be missing. Equal entries are not always repeated.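 Assay format: 96-well plates, 48-hour exposure. GI50 is the concentration that inhibits growth by half. TGI: concentration producing complete growth inhibition.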 Bounds are passed on as bounds.

Turning to `CCCCc1oc2ccccc2c1C(=O)c1cc(I)c(OCCN(CC)CC)c(I)c1`, the GI50 with HOP-92 NSCLC is 0.625 µM; with OVCAR-5 ovarian it was 2.46 µM; in the assay on COLO 205 colon, 1.89 µM; in the assay on NCI/ADR-RES ovarian, 1.94 µM; in the assay with HCT-15 colon it was 2.06 µM; in the assay on MDA-MB-231 breast, 2 µM. The GI50 in the assay with HL-60(TB) leukemia is 1.93 µM; in the assay with OVCAR-8 ovarian, 3.37 µM and 11 µM. In addition, the TGI was 2.46 µM and 10.3 µM in the assay on HOP-92 NSCLC; 3.87 µM with NCI-H460 lung; 7.27 µM and 10.9 µM in the assay on OVCAR-5 ovarian; 3.4 µM and 7.84 µM in the assay with COLO 205 colon; 4.54 µM and 16.5 µM in the assay on NCI/ADR-RES ovarian; 4.68 µM and 8.21 µM in the assay on HCT-15 colon. Also, the TGI in the assay with MDA-MB-231 breast was 5.18 µM; in the assay on SF-539 CNS it was 10.5 µM; in the assay with HL-60(TB) leukemia it was 3.88 µM and 7.09 µM; in the assay with OVCAR-8 ovarian it was 13.2 µM and 92.5 µM.

In the case of `O=C1/C(=C/c2ccc(C(F)(F)F)cc2)COc2ccc(O)cc21`, the GI50 in the assay on HOP-92 NSCLC was 11.8 µM; in the assay on NCI-H460 lung it was 3.24 µM; in the assay with OVCAR-5 ovarian it was 2.18 µM; in the assay on COLO 205 colon it was 2.47 µM; in the assay on NCI/ADR-RES ovarian, 2.15 µM; in the assay on HCT-15 colon, 1.66 µM. Moreover, the GI50 with MDA-MB-231 breast was 2.36 µM; with SF-539 CNS, 1.68 µM; in the assay with HL-60(TB) leukemia, 1.27 µM; with OVCAR-8 ovarian, 3.26 µM. Also, the TGI in the assay with HOP-92 NSCLC was found to be 24.7 µM; with NCI-H460 lung, 10.4 µM; in the assay on OVCAR-5 ovarian, 5.49 µM; in the assay with COLO 205 colon, 5.83 µM; in the assay with NCI/ADR-RES ovarian, 6.42 µM; in the assay with HCT-15 colon, 3.47 µM. Also, the TGI is 5.65 µM in the assay on MDA-MB-231 breast, 3.3 µM in the assay on SF-539 CNS, 4.35 µM in the assay on HL-60(TB) leukemia and 11.1 µM with OVCAR-8 ovarian.

Turning to `O=C(Nn1c2c(sc1=NC1CC1)C(=O)c1ccccc1C2=O)c1cc2ccc1CCc1ccc(cc1)CC2`, the GI50 in the assay with HOP-92 NSCLC was 2.26 µM; with NCI-H460 lung, 3.35 µM; in the assay with OVCAR-5 ovarian it was 1.83 µM; in the assay with COLO 205 colon it was 3.36 µM; with NCI/ADR-RES ovarian it was 1.93 µM; in the assay with HCT-15 colon, 1.51 µM. The GI50 in the assay on MDA-MB-231 breast is 1.37 µM; in the assay on SF-539 CNS, 1.67 µM; in the assay with HL-60(TB) leukemia, 2.18 µM; in the assay on OVCAR-8 ovarian, 2.62 µM. Besides, the TGI in the assay with HOP-92 NSCLC amounted to 14.4 µM; in the assay with NCI-H460 lung, 12.2 µM; with OVCAR-5 ovarian, 3.53 µM; with COLO 205 colon, 12.7 µM; with NCI/ADR-RES ovarian it was 6.77 µM; in the assay with HCT-15 colon it was 3.24 µM. The TGI was found to be 9.82 µM in the assay on MDA-MB-231 breast, 3.06 µM in the assay on SF-539 CNS, 6.26 µM with HL-60(TB) leukemia and 11.6 µM in the assay with OVCAR-8 ovarian.

As for `CCOC(=O)c1cn2ncnc(Oc3ccc(NC(=O)NCCN(CC)CC)c(Cl)c3)c2c1C`, the GI50 with HOP-92 NSCLC is 1.76 µM; with NCI-H460 lung, 9.1 µM; in the assay on OVCAR-5 ovarian, 3.97 µM; in the assay on COLO 205 colon, 2.01 µM; in the assay with NCI/ADR-RES ovarian, 4.26 µM; in the assay with HCT-15 colon, 1.84 µM. Also, the GI50 in the assay on MDA-MB-231 breast was 2.1 µM; in the assay with SF-539 CNS, 1.76 µM; in the assay with HL-60(TB) leukemia, 1.81 µM; in the assay with OVCAR-8 ovarian, 5.66 µM. Further, the TGI with HOP-92 NSCLC stood at 6.19 µM; in the assay on NCI-H460 lung, 24.4 µM; in the assay on OVCAR-5 ovarian it was 16.1 µM; with COLO 205 colon, 3.78 µM; with NCI/ADR-RES ovarian, 64.5 µM; with HCT-15 colon, 4.07 µM. In addition, the TGI in the assay on MDA-MB-231 breast was 4.37 µM; with SF-539 CNS, 3.45 µM; with HL-60(TB) leukemia, 4.07 µM; in the assay with OVCAR-8 ovarian, over 100 µM.

For the molecule `C[C@@H]1CCC2[C@@H](C)[C@H](OC(=O)CCC(=O)NCCNC(=O)Cc3cc(=O)oc4cc(N(C)C)ccc34)O[C@@H]3O[C@]4(C)CC[C@@H]1C23OO4` (some centres not stated), the GI50 was 2.6 µM in the assay with HOP-92 NSCLC; 2.43 µM with NCI-H460 lung; 1.28 µM in the assay with OVCAR-5 ovarian; 2.62 µM with COLO 205 colon; 1.19 µM in the assay with NCI/ADR-RES ovarian; 0.318 µM with HCT-15 colon. Moreover, the GI50 was 22.6 µM in the assay on MDA-MB-231 breast, 3.22 µM in the assay on SF-539 CNS, 0.301 µM in the assay with HL-60(TB) leukemia and 0.906 µM in the assay on OVCAR-8 ovarian. Also, the TGI was 16.9 µM in the assay with HOP-92 NSCLC; 19.2 µM with NCI-H460 lung; over 76.9 µM with OVCAR-5 ovarian; 15.2 µM with COLO 205 colon; 22.9 µM in the assay with NCI/ADR-RES ovarian; 21 µM in the assay on HCT-15 colon. For the same molecule, the TGI with MDA-MB-231 breast was over 100 µM; in the assay on SF-539 CNS, 24.3 µM; in the assay on HL-60(TB) leukemia it was 6.77 µM; in the assay with OVCAR-8 ovarian, over 47.8 µM.

Turning to `CC1CCC(C#N)(NOC2=NCCN2)CC1` (configuration not stated), the GI50 in the assay with HOP-92 NSCLC was 35.4 µM; with NCI-H460 lung, 37.7 µM; in the assay on OVCAR-5 ovarian, over 100 µM; in the assay with COLO 205 colon it was 36 µM; with NCI/ADR-RES ovarian it was over 100 µM; in the assay on HCT-15 colon it was 27.8 µM. The GI50 was 54.9 µM in the assay with MDA-MB-231 breast, 23.4 µM with SF-539 CNS, 34.5 µM in the assay with HL-60(TB) leukemia and 29.2 µM with OVCAR-8 ovarian. In addition, the TGI in the assay on HOP-92 NSCLC was 91.3 µM; in the assay on NCI-H460 lung it was over 100 µM; with OVCAR-5 ovarian, over 100 µM; with COLO 205 colon it was over 100 µM; in the assay with NCI/ADR-RES ovarian, over 100 µM; with HCT-15 colon it was over 100 µM. Also, the TGI was over 100 µM in the assay on MDA-MB-231 breast, 45.4 µM with SF-539 CNS, over 100 µM in the assay on HL-60(TB) leukemia and over 100 µM with OVCAR-8 ovarian.

In the case of `CN1CCN(c2ccc([N+](=O)[O-])c3no[n+]([O-])c23)CC1`, the GI50 with HOP-92 NSCLC is 0.188 µM; with NCI-H460 lung, 0.118 µM; in the assay with OVCAR-5 ovarian it was 1.49 µM; with COLO 205 colon it was 0.942 µM; with NCI/ADR-RES ovarian, 0.286 µM; in the assay with HCT-15 colon, 0.227 µM. Besides, the results for the GI50 in the assay with SF-539 CNS, in the assay with HL-60(TB) leukemia and in the assay with OVCAR-8 ovarian were 0.246 µM, 0.0322 µM and 0.145 µM, respectively. For the same molecule, the TGI with HOP-92 NSCLC is 1.2 µM; with NCI-H460 lung, 1.17 µM and 0.764 µM; with OVCAR-5 ovarian it was 4.25 µM and 3.27 µM; with COLO 205 colon, 2.33 µM and 2.41 µM; with NCI/ADR-RES ovarian, 2.46 µM and 1.47 µM; with HCT-15 colon, 2.15 µM and 1.21 µM. For the same molecule, the TGI is 3.46 µM and 3.65 µM in the assay on MDA-MB-231 breast; 0.722 µM and 0.733 µM in the assay with SF-539 CNS; 0.157 µM and 0.155 µM in the assay on HL-60(TB) leukemia; 1.75 µM and 0.34 µM in the assay with OVCAR-8 ovarian.
